Activity calls are given as the source filed them. The calls are words filed in the database; no cut-off is given here.
How the values were obtained:
HT-29 [1] = assay: Inhibition of TNF-alpha-induced adhesion of BCECF-labeled human U937 cells to human HT-29 cells at 10 uM preincubated for 1 hr followed by TNF-alpha challenge measured after 3 hrs by fluorescence microscopic method relative to control; assay type: functional
HT-29 [2] = assay: Inhibition of TNF-alpha-induced adhesion of BCECF-labeled human U937 cells to human HT-29 cells preincubated for 1 hr followed by TNF-alpha challenge measured after 3 hrs by fluorescence microscopic method; assay type: functional, cell-based
HT-29 [3] = assay: Inhibition of TNF-alpha-induced ICAM-1 expression in human HT-29 cells at 10 uM preincubated for 1 hr followed by TNF-alpha challenge measured after 3 hrs by Western blot analysis; assay type: functional, cell-based
HT-29 [4] = assay: Inhibition of TNF-alpha-induced MCP-1 expression in human HT-29 cells at 10 uM preincubated for 1 hr followed by TNF-alpha challenge measured after 3 hrs by Western blot analysis; assay type: functional, cell-based
HT-29 [5] = assay: Inhibition of TNF-alpha-induced NFkappa-B transcriptional activity in human HT-29 cells at 10 uM preincubated for 1 hr followed by TNF-alpha challenge measured after 3 hrs by dual luciferase reporter gene assay; assay type: functional, cell-based
HT-29 [6] = assay: Inhibition of TNF-alpha-induced ROS production in human HT-29 cells at 10 uM preincubated for 1 hr followed by TNF-alpha challenge measured after 30 mins by DCF-DA dye-based fluorescence microscopy; assay type: functional, cell-based
Rattus norvegicus [7] = assay: Antiinflammatory activity in TNBS-induced Sprague-Dawley rat colitis model assessed as recovery of colon tissue edematous inflammation at 300 mg/kg, po qd administered for 5 days measured on day 6; assay type: functional, organism-based
Rattus norvegicus [8] = assay: Antiinflammatory activity in TNBS-induced Sprague-Dawley rat colitis model assessed as recovery in body weight decrease at 300 mg/kg, po qd administered for 5 days measured on day 6; assay type: functional, organism-based
HT-29 [9] = assay: Potency index, ratio of 5-ASA IC50 to test compound IC50 for inhibition of TNF-alpha-induced adhesion of BCECF-labeled human U937 cells to human HT-29 cells; assay type: functional
HT-29 [10] = assay: Inhibition of TNF-alpha-induced ICAM-1 expression in human HT-29 cells preincubated for 1 hr followed by TNF-alpha challenge measured after 3 hrs by Western blot analysis; assay type: functional, cell-based
HT-29 [11] = assay: Inhibition of TNF-alpha-induced MCP-1 expression in human HT-29 cells preincubated for 1 hr followed by TNF-alpha challenge measured after 3 hrs by Western blot analysis; assay type: functional, cell-based
HT-29 [12] = assay: Inhibition of TNF-alpha-induced ROS production in human HT-29 cells preincubated for 1 hr followed by TNF-alpha challenge measured after 30 mins by DCF-DA dye-based fluorescence microscopy; assay type: functional, cell-based
HT-29 [13] = assay: Inhibition of LPS-induced TNF-alpha expression in human HT-29 cells at 10 uM preincubated for 1 hr followed by TNF-alpha challenge measured after 3 hrs by Western blot method; assay type: functional, cell-based
HT-29 [14] = assay: Inhibition of LPS-induced TNF-alpha expression in human HT-29 cells preincubated for 1 hr followed by TNF-alpha challenge measured after 3 hrs by Western blot method; assay type: functional, cell-based
HT-29 [15] = assay: Inhibition of TNF-alpha-induced AP-1 transcriptional activity in human HT-29 cells at 10 uM preincubated for 1 hr followed by TNF-alpha challenge measured after 3 hrs by dual luciferase reporter gene assay; assay type: functional, cell-based
Rattus norvegicus [16] = assay: Antiinflammatory activity in po dosed TNBS-induced Sprague-Dawley rat colitis model assessed as recovery in body weight decrease administered once a day for 5 days measured on day 6; assay type: functional, organism-based
Rattus norvegicus [17] = assay: Antiinflammatory activity in po dosed TNBS-induced Sprague-Dawley rat colitis model assessed as recovery of colon tissue edematous inflammation administered once a day for 5 days measured on day 6; assay type: functional, organism-based
Rattus norvegicus [18] = assay: Antiinflammatory activity in po dosed TNBS-induced Sprague-Dawley rat colitis model assessed as decrease in MPO levels in colon tissue administered once per day for 5 days measured on day 6; assay type: functional, organism-based
HT-29 [19] = assay: Inhibition of TNF-alpha-induced adhesion of BCECF-labeled human U937 cells to human HT-29 cells at […] preincubated for 1 hr followed by TNF-alpha challenge measured after 3 hrs by fluorescence microscopic method relative to control; assay type: functional
HT-29 [20] = assay: Inhibition of LPS-induced TNF-alpha expression in human HT-29 cells at […] preincubated for 1 hr followed by TNF-alpha challenge measured after 3 hrs by Western blot method; assay type: functional, cell-based

Q: How did the inhibition at 10 µM (HT-29 [1]) turn out when O=C1/C(=C/c2cccc([N+](=O)[O-])c2)Cc2ccccc21 was run?
A: 46.5%

Q: With O=C1/C(=C/c2cccc(Cl)c2)Cc2ccccc21 as the molecule, how does the inhibition at 10 µM (HT-29 [1]) read?
A: -2.1%

Q: How did the inhibition at 10 µM (HT-29 [1]) turn out when O=C1/C(=C/c2ccc(O)cc2)Cc2c(O)cccc21 was run?
A: -1.7%

Q: Which inhibition at 10 µM (HT-29 [1]) does the source give for COc1ccc(/C=C2\Cc3ccc(O)cc3C2=O)cc1O here?
A: 12%

Q: For O=C1/C(=C/c2cccc(Cl)c2)Oc2ccccc21, which inhibition at 10 µM (HT-29 [1]) is on record?
A: 40%

Q: Which inhibition at 10 µM (HT-29 [1]) does the source give for O=C1/C(=C/c2cccc(O)c2)Cc2ccccc21 here?
A: 43.7%

Q: O=C1/C(=C/c2ccc(Cl)cc2)Cc2cccc(O)c21 was tested. Which inhibition at 10 µM (HT-29 [1]) did it give?
A: 78.4%

Q: What about the IC50 (HT-29 [2]) of the same molecule?
A: 1.64 µM

Q: And the inhibition (HT-29 [3])?
A: Active

Q: What about the inhibition (HT-29 [4]) of the same molecule?
A: Active

Q: What about the inhibition (HT-29 [5]) of the same molecule?
A: Active

Q: What about the inhibition (HT-29 [6]) of the same molecule?
A: Active

Q: Which inhibition at 10 µM (HT-29 [1]) does the source give for COc1ccc(/C=C2\Cc3c(O)cccc3C2=O)cc1O here?
A: 0.1%

Q: How did the inhibition at 10 µM (HT-29 [1]) turn out when O=C1/C(=C/c2cccc(F)c2)Cc2ccccc21 was run?
A: 22.1%

Q: O=C1/C(=C/c2ccccc2O)Cc2cc(O)ccc21 was tested. Which inhibition at 10 µM (HT-29 [1]) did it give?
A: 32.1%

Q: How did the inhibition at 10 µM (HT-29 [1]) turn out when O=C1/C(=C/c2ccc(Cl)cc2)Oc2ccccc21 was run?
A: 68.7%

Q: Which inhibition (Rattus norvegicus [7]) does the source give for O=C(O)c1cc(/N=N/c2ccc(S(=O)(=O)Nc3ccccn3)cc2)ccc1O here?
A: Active

Q: And the inhibition (Rattus norvegicus [8])?
A: Active

Q: With O=C1/C(=C/c2ccccc2Cl)Cc2ccccc21 as the molecule, how does the inhibition at 10 µM (HT-29 [1]) read?
A: -4.3%

Q: For O=C1/C(=C/c2ccc(Cl)cc2)Cc2ccc(O)cc21, which inhibition at 10 µM (HT-29 [1]) is on record?
A: 67.9%

Q: With O=C1/C(=C/c2ccc(Cl)cc2)Cc2ccccc21 as the molecule, how does the inhibition at 10 µM (HT-29 [1]) read?
A: -6.1%

Q: How did the inhibition at 10 µM (HT-29 [1]) turn out when O=C1/C(=C/c2ccc(O)cc2)Oc2cc(O)ccc21 was run?
A: 80.3%

Q: What about the IC50 (HT-29 [2]) of the same molecule?
A: 0.5 µM

Q: And the inhibition (HT-29 [2])?
A: Dose-dependent effect

Q: What about the “Ratio IC50” value (HT-29 [9]) of the same molecule?
A: 40000

Q: And the inhibition (HT-29 [10])?
A: Dose-dependent effect

Q: What about the inhibition (HT-29 [11]) of the same molecule?
A: Dose-dependent effect

Q: And the inhibition (HT-29 [5])?
A: Active

Q: And the inhibition (HT-29 [12])?
A: Active

Q: And the inhibition (HT-29 [13])?
A: Active

Q: And the inhibition (HT-29 [14])?
A: Dose-dependent effect

Q: What about the inhibition (HT-29 [15]) of the same molecule?
A: Active

Q: What about the Activity (Rattus norvegicus [16]) of the same molecule?
A: Dose-dependent effect

Q: What about the Activity (Rattus norvegicus [17]) of the same molecule?
A: Dose-dependent effect

Q: What about the inhibition (Rattus norvegicus [18]) of the same molecule?
A: Dose-dependent effect

Q: O=C1/C(=C/c2ccc(OC(F)(F)F)cc2)Cc2ccccc21 was tested. Which inhibition at 10 µM (HT-29 [1]) did it give?
A: 34.5%

Q: How did the inhibition at 10 µM (HT-29 [1]) turn out when O=C1/C(=C/c2ccccc2O)Oc2cc(O)ccc21 was run?
A: 53.5%

Q: O=C1/C(=C/c2ccccc2OC(F)(F)F)Cc2ccccc21 was tested. Which inhibition at 10 µM (HT-29 [1]) did it give?
A: 3.4%

Q: How did the inhibition at 10 µM (HT-29 [1]) turn out when Nc1ccc(O)c(C(=O)O)c1 [MESALAMINE] was run?
A: 3.7%

Q: And the inhibition (HT-29 [19])?
A: 52.8%

Q: And the IC50 (HT-29 [2])?
A: 20400 µM

Q: And the inhibition (HT-29 [13])?
A: inactive

Q: And the inhibition (HT-29 [20])?
A: Active

Q: With O=C1/C(=C/c2ccc(Cl)cc2)Cc2c(O)cccc21 as the molecule, how does the inhibition at 10 µM (HT-29 [1]) read?
A: 10.6%

Q: How did the inhibition at 10 µM (HT-29 [1]) turn out when O=C1/C(=C/c2ccccc2O)Cc2cccc(O)c21 was run?
A: 67.9%

Q: For O=C1/C(=C/c2cccc(O)c2)Oc2ccccc21, which inhibition at 10 µM (HT-29 [1]) is on record?
A: 75.4%

Q: And the IC50 (HT-29 [2])?
A: 3.17 µM

Q: What about the inhibition (HT-29 [3]) of the same molecule?
A: Active

Q: And the inhibition (HT-29 [4])?
A: Active

Q: And the inhibition (HT-29 [5])?
A: Active

Q: What about the inhibition (HT-29 [6]) of the same molecule?
A: Active

Q: O=C1/C(=C/c2ccc(O)cc2)Oc2ccccc21 was tested. Which inhibition at 10 µM (HT-29 [1]) did it give?
A: 63.6%

Q: O=C1/C(=C/c2ccccc2O)Cc2ccc(O)cc21 was tested. Which inhibition at 10 µM (HT-29 [1]) did it give?
A: 71.3%

Q: And the IC50 (HT-29 [2])?
A: 2.29 µM

Q: And the inhibition (HT-29 [3])?
A: Active

Q: And the inhibition (HT-29 [4])?
A: Active

Q: What about the inhibition (HT-29 [5]) of the same molecule?
A: Active

Q: And the inhibition (HT-29 [6])?
A: Active

Q: With O=C1/C(=C/c2cccc(C(F)(F)F)c2)Cc2ccccc21 as the molecule, how does the inhibition at 10 µM (HT-29 [1]) read?
A: 54.9%

Q: How did the inhibition at 10 µM (HT-29 [1]) turn out when O=C1/C(=C/c2cccnc2)Cc2ccccc21 was run?
A: 28.7%

Q: O=C1/C(=C/c2ccccc2O)Oc2ccccc21 was tested. Which inhibition at 10 µM (HT-29 [1]) did it give?
A: 85.6%

Q: What about the IC50 (HT-29 [2]) of the same molecule?
A: 0.95 µM

Q: And the inhibition (HT-29 [3])?
A: Active

Q: And the inhibition (HT-29 [4])?
A: Active

Q: And the inhibition (HT-29 [5])?
A: Active

Q: What about the inhibition (HT-29 [6]) of the same molecule?
A: Active

Q: O=C1/C(=C/c2cccc(O)c2)Cc2cc(O)ccc21 was tested. Which inhibition at 10 µM (HT-29 [1]) did it give?
A: 50.2%

Q: Which inhibition at 10 µM (HT-29 [1]) does the source give for O=C1/C(=C/c2ccccc2O)Cc2ccccc21 here?
A: 63.1%
